Converted amounts (≈) assume the structure as drawn.
Assays:
[1] = tested on: Salmonella typhy LRP 8; assay: microbe, parasite or virus in culture; assay type: cell-based; conditions: LRP8, solid medium, read-out: Minimum inhibiting concentration
Excerpt: (§1) the bacteriostatic power, expressed as the minimum inhibiting concentration (MIC) against both aerobic and anaerobic, Gram positive and Gram negative, bacterial stocks: the related results are reported in the tables 2 and 3.

[2] = tested on: Clostridium perfrigens ATCC 3624 LRP 206; assay: microbe, parasite or virus in culture; assay type: cell-based; conditions: ATCC3624, solid medium, anaerobic, read-out: Minimum inhibiting concentration
Excerpt: as §1

[3] = tested on: Streptococcus faecalis subs. zymogenes ATCC 12958 LRP 61; assay: Bacteriostatic power in liquid medium (MIC); assay type: cell-based; conditions: Enterococcus faecalis, ATCC12958, read-out: Minimum inhibiting concentration
Excerpt: as §1

[4] = tested on: Staphylococcus aureus ATCC 6538 P LRP 39; assay: Bacteriostatic power in liquid medium (MIC); assay type: cell-based; conditions: Staphylococcus aureus, ATCC6538, read-out: Minimum inhibiting concentration
Excerpt: as §1

[5] = tested on: Streptococcus pyogenes ATCC 8668 LRP 34; assay: Bacteriostatic power in liquid medium (MIC); assay type: cell-based; conditions: Streptococcus pyogenes, ATCC8668, read-out: Minimum inhibiting concentration
Excerpt: as §1

[6] = tested on: Streptococcus pneumoniae ATCC 6303 LRP 35; assay: Bacteriostatic power in liquid medium (MIC); assay type: cell-based; conditions: Streptococcus pneumoniae, ATCC6303, read-out: Minimum inhibiting concentration
Excerpt: as §1

[7] = tested on: Corynebacterium diphteriae LRP 24; assay: Bacteriostatic power in liquid medium (MIC); assay type: cell-based; conditions: Corynebacterium, LRP24, read-out: Minimum inhibiting concentration
Excerpt: as §1

[8] = Stability in acidic environment at 25° C. (half-life of initial microbiological activity); assay type: physicochemical; conditions: aqueous solution
Method: Stability in acidic environnment at 25° C. of the novel
Note: t 1/2 represents the time for reducing to one half the initial powe
of the antibiotic determined by microbiological method through diffusion
on a plate using the test stock Microccocus luteus (Sarcina lutea) ATCC

[9] = tested on: Escherichia coli LRP 50; assay: Bacteriostatic power in solid medium (MIC); assay type: cell-based; conditions: Escherichia coli, LRP50, read-out: Minimum inhibiting concentration
Excerpt: as §1

[10] = tested on: Fusobacteriumnecrophroum ATCC 27852 LRP 210; assay: Bacteriostatic power in solid medium (MIC); assay type: cell-based; conditions: read-out: Minimum inhibiting concentration
Excerpt: as §1

[11] = tested on: Klelsiella pneumoniae LRP 54; assay: Bacteriostatic power in solid medium (MIC); assay type: cell-based; conditions: read-out: Minimum inhibiting concentration
Excerpt: as §1

[12] = tested on: Neisseria gonorrhoeae ATCC 19424 LRP 214; assay: Bacteriostatic power in solid medium (MIC); assay type: cell-based; conditions: Neisseria gonorrhoeae, ATCC19424, read-out: Minimum inhibiting concentration
Excerpt: as §1

[13] = tested on: Streptococcus pneumoniae ATCC 6303 LRP 52; assay: Bacteriostatic power in solid medium (MIC); assay type: cell-based; conditions: Streptococcus pneumoniae, ATCC6303, read-out: Minimum inhibiting concentration
Excerpt: as §1

[14] = tested on: Shigella sonnei LRP 5; assay: Bacteriostatic power in solid medium (MIC); assay type: cell-based; conditions: LRP5, read-out: Minimum inhibiting concentration
Excerpt: as §1

[15] = tested on: Acholeplasma laidlawii ATCC 23206 LRP 204; assay: Bacteriostatic power in solid medium (MIC); assay type: cell-based; conditions: Acholeplasma laidlawii, ATCC23206, read-out: Minimum inhibiting concentration
Excerpt: as §1

[16] = tested on: Bacillus subtilis LRP 25; assay: Bacteriostatic power in solid medium (MIC); assay type: cell-based; conditions: Bacillus subtilis, LRP25, read-out: Minimum inhibiting concentration
Excerpt: as §1

[17] = tested on: Staphylococcus aureus ATCC 14154 LRP 78; assay: Bacteriostatic power in solid medium (MIC); assay type: cell-based; conditions: Staphylococcus aureus, ATCC14154, read-out: Minimum inhibiting concentration
Excerpt: as §1

[18] = tested on: Streptococcus pyogenes ATCC 8668 LRP 34; assay: Bacteriostatic power in solid medium (MIC); assay type: cell-based; conditions: Streptococcus pyogenes, ATCC8668, read-out: Minimum inhibiting concentration
Excerpt: as §1

[19] = tested on: Proteus vulgaris ATCC 6380 LRP 13; assay: Bacteriostatic power in solid medium (MIC); assay type: cell-based; conditions: Proteus vulgaris, ATCC6380, read-out: Minimum inhibiting concentration
Excerpt: as §1

[20] = tested on: Staphylococcus aureus ATCC 6538P LRP 14; assay: Bacteriostatic power in solid medium (MIC); assay type: cell-based; conditions: Staphylococcus aureus, ATCC6538P, read-out: Minimum inhibiting concentration
Excerpt: as §1

[21] = tested on: Streptococcus pyogenes ATCC 8668 LRP 197; assay: Bacteriostatic power in solid medium (MIC); assay type: cell-based; conditions: Streptococcus pyogenes, ATCC8668, read-out: Minimum inhibiting concentration
Excerpt: as §1

[22] = tested on: Micrococcus luteus ATCC 15957 LRP 193; assay: Bacteriostatic power in solid medium (MIC); assay type: cell-based; conditions: Micrococcus luteus, ATCC15957, read-out: Minimum inhibiting concentration
Excerpt: as §1

[23] = tested on: Pseudomonas aeruginosa LRP 9; assay: Bacteriostatic power in solid medium (MIC); assay type: cell-based; conditions: Pseudomonas aeruginosa, LRP9, read-out: Minimum inhibiting concentration
Excerpt: as §1

[24] = tested on: Staphylococcus aureus ATCC 6538P LRP 39; assay: Bacteriostatic power in solid medium (MIC); assay type: cell-based; conditions: Staphylococcus aureus, ATCC6538P, read-out: Minimum inhibiting concentration
Excerpt: as §1

[25] = tested on: Streptococcus pneumoniae ATCC 6303 LRP 35; assay: Bacteriostatic power in solid medium (MIC); assay type: cell-based; conditions: Streptococcus pneumoniae, ATCC6303, read-out: Minimum inhibiting concentration
Excerpt: as §1

[26] = tested on: Bacteroides fragilis ATCC 23745 LRP 205; assay: Bacteriostatic power in solid medium (MIC); assay type: cell-based; conditions: Bacteroides fragilis, ATCC23745, read-out: Minimum inhibiting concentration
Excerpt: as §1

[27] = tested on: Haemophilus influenzae ATCC 19418 LRP 213; assay: Bacteriostatic power in solid medium (MIC); assay type: cell-based; conditions: Haemophilus influenzae, ATCC19418, read-out: Minimum inhibiting concentration
Excerpt: as §1

[28] = tested on: Corynebacterium diphteriae LRP 24; assay: Bacteriostatic power in solid medium (MIC); assay type: cell-based; conditions: Corynebacterium, LRP24, read-out: Minimum inhibiting concentration
Excerpt: as §1

[29] = tested on: Streptococcus faecalis LRP 7; assay: Bacteriostatic power in solid medium (MIC); assay type: cell-based; conditions: Enterococcus faecalis, LRP7, read-out: Minimum inhibiting concentration
Excerpt: as §1

[30] = tested on: Streptococcus pneumoniae ATCC 6303 LRP 53; assay: Bacteriostatic power in solid medium (MIC); assay type: cell-based; conditions: Streptococcus pneumoniae, ATCC6303, read-out: Minimum inhibiting concentration
Excerpt: as §1

[31] = tested on: Streptococcus faecalis subsp. zymogenes ATCC 12958 LRP 61; assay: Bacteriostatic power in solid medium (MIC); assay type: cell-based; conditions: Enterococcus faecalis, ATCC12958, read-out: Minimum inhibiting concentration
Excerpt: as §1

[32] = tested on: Micrococcus luteus ATCC 9341 LRP 6; assay: Bacteriostatic power in solid medium (MIC); assay type: cell-based; conditions: Micrococcus luteus, ATCC9341, read-out: Minimum inhibiting concentration
Excerpt: as §1

[33] = tested on: Mycoplasma hominis I ATCC 14027 LRP 211; assay: Bacteriostatic power in solid medium (MIC); assay type: cell-based; conditions: Metamycoplasma hominis, ATCC14027, read-out: Minimum inhibiting concentration
Excerpt: as §1

[34] = tested on: Streptococcus faecalis subs. zymogenes LRP 61; assay: Minimum bactericidal concentration (MBC); assay type: cell-based
Excerpt: (§2) the bacterial power, expressed as the minimum bactericidal power (MBC) against some Gram positive aerobic stocks (table 5).

[35] = tested on: Staphylococcus aureus ATCC 6538 P LRP 39; assay: Minimum bactericidal concentration (MBC); assay type: cell-based
Excerpt: as §2

[36] = tested on: Streptococcus pyogenes ATCC 8668 LRP 34; assay: Minimum bactericidal concentration (MBC); assay type: cell-based
Excerpt: as §2

[37] = tested on: Streptococcus pneumoniae ATCC 6303 LRP 35; assay: Minimum bactericidal concentration (MBC); assay type: cell-based
Excerpt: as §2

[38] = tested on: Corynebacterium diphteriae LRP 24; assay: Minimum bactericidal concentration (MBC); assay type: cell-based
Excerpt: as §2

CC[C@H]1OC(=O)[C@H](C)[C@@H](O[C@H]2C[C@H](OC)[C@@H](O)[C@H](C)O2)[C@H](C)[C@@H](O[C@@H]2O[C@H](C)C[C@H](N(C)C)[C@H]2O)[C@](C)(O)C[C@](C)(F)C(=O)[C@H](C)[C@@H](O)[C@H]1C [P-80204, 3-O-oleandrosyl-5-O-desosaminyl-(8S)-8-fluoroerythronolide B]
MIC [1]: 25 mg/L (≈ 34.6 µM)
MIC [2]: 1.56 mg/L (≈ 2.16 µM)
MIC [3]: 0.39 mg/L (≈ 0.54 µM)
MIC [4]: 0.195 mg/L (≈ 0.27 µM)
MIC [5]: 0.049 mg/L (≈ 0.0679 µM)
MIC [6]: 0.024 mg/L (≈ 0.0332 µM)
MIC [7]: 0.024 mg/L (≈ 0.0332 µM)
half-life ([8]; pH 2): 25 h
half-life ([8]; pH 3): 100 h
MIC [9]: 25 mg/L (≈ 34.6 µM)
MIC [10]: 12.5 mg/L (≈ 17.3 µM)
MIC [11]: 25 mg/L (≈ 34.6 µM)
MIC [12]: 0.39 mg/L (≈ 0.54 µM)
MIC [13]: 0.049 mg/L (≈ 0.0679 µM)
MIC [14]: 25 mg/L (≈ 34.6 µM)
MIC [15]: 3.12 mg/L (≈ 4.32 µM)
MIC [16]: 0.195 mg/L (≈ 0.27 µM)
MIC [17]: 25 mg/L (≈ 34.6 µM)
MIC [18]: 0.049 mg/L (≈ 0.0679 µM)
MIC [19]: 25 mg/L (≈ 34.6 µM)
MIC [20]: 0.39 mg/L (≈ 0.54 µM)
MIC [21]: 0.049 mg/L (≈ 0.0679 µM)
MIC [22]: 25 mg/L (≈ 34.6 µM)
MIC [23]: 25 mg/L (≈ 34.6 µM)
MIC [24]: 0.39 mg/L (≈ 0.54 µM)
MIC [25]: 0.049 mg/L (≈ 0.0679 µM)
MIC [26]: 3.12 mg/L (≈ 4.32 µM)
MIC [27]: 6.25 mg/L (≈ 8.66 µM)
MIC [28]: 0.049 mg/L (≈ 0.0679 µM)
MIC [29]: 0.39 mg/L (≈ 0.54 µM)
MIC [30]: 0.049 mg/L (≈ 0.0679 µM)
MIC [31]: 0.39 mg/L (≈ 0.54 µM)
MIC [32]: 0.049 mg/L (≈ 0.0679 µM)
MIC [33]: 25 mg/L (≈ 34.6 µM)
MBC/MIC [34]: 16
MBC ([34]; Enterococcus faecalis, read-out: Minimum bactericidal concentration (MBC)): 6.25 mg/L (≈ 8.66 µM)
MBC/MIC [35]: 16
MBC ([35]; Staphylococcus aureus, ATCC6538, read-out: Minimum bactericidal concentration (MBC)): 3.12 mg/L (≈ 4.32 µM)
MBC/MIC [36]: 8
MBC ([36]; Streptococcus pyogenes, ATCC8668, read-out: Minimum bactericidal concentration (MBC)): 0.39 mg/L (≈ 0.54 µM)
MBC/MIC [37]: 2
MBC ([37]; Streptococcus pneumoniae, ATCC6303, read-out: Minimum bactericidal concentration (MBC)): 0.049 mg/L (≈ 0.0679 µM)
MBC/MIC [38]: 16
MBC ([38]; Corynebacterium, LRP24, read-out: Minimum bactericidal concentration (MBC)): 0.39 mg/L (≈ 0.54 µM)

Source: US4439426A, “Semisynthetic macrolidic antibiotics, intermediate compounds for their preparation and related pharmaceutical compositions containing them” (priority 1981, dated 1984)
